Laboratory results reported in patent US20250325499A1, “IMMUNO-ABLATION TREATMENT FOR SOLID TUMORS” (Northwestern University, priority 2022, published 2025).

Columns and labels:
[1] = system: N1S1 cells; assay: Cellular uptake of curcumin (confocal images, flow cytometry)
Procedure: Briefly, the N1S1 cells (1×10^5/mL) were cultured in a confocal dish (MatTek, 35 mm dish with 14 mm glass bottom). The cellular nucleus was stained with DAPI. Cell membranes were stained with Dil red (D282) following the protocol from ThermoFisher. […] The cells were then fixed by 4% paraformaldehyde and visualized with a confocal microscope (Nikon AIRS).
(§4) N1S1 cells were seeded onto the six-well plate (2×10^5/well). […] After washing the cells with PBS, they were fixed with 4% formalin at room temperature for 15 minutes. The results were examined by flow cytometry.

[2] = system: p-STAT3; assay: Western blot of p-STAT3 in N1S1 hepatoma cells; format: cell-based; conditions: ethanol 10, 5 and 1%
Procedure: (§1) N1S1 cells were seeded in the 8 cm culture dishes and cultured at 5% CO2, 37° C. overnight. The cells were treated with various groups for […]: ethanol (25, 20, 15, 10, and 5%) for 4, 12, and 24 h, and 15% ethanol+Cur1, 10% ethanol+Cur1, 15% ethanol+Cur2, 10% ethanol+Cur2, 15% ethanol+Cur3, and 10% ethanol+Cur3 for 24 h. […] No treatment of N1S1 was used as control. The cell lysates were collected and analyzed by Western blotting according to the manufacturer's instructions. Antibodies were used listed as below: GPX4 Rabbit anti-Human, Mouse, Rat, Polyclonal, Invitrogen™, catalog number: PIPA579321, dilution 0.1-0.5 μg/mL; p-STAT3 Rabbit mAb, cell signaling, catalog number: 9145, dilution 1:2000; p-p65 Rabbit mAb, cell signaling, catalog number: 3033, dilution 1:1000; PD-L1 Polyclonal Antibody, Invitrogen™, catalog number: PA5-20343, dilution 0.5-2 μg/mL; β-Actin (8H10D10) Mouse mAb (HRP Conjugate), cell signaling, catalog number: 12262, dilution 1:1000.
(§2) Western blot assay was then used to identify specific molecules associated with cancer cell response to the ethanol treatments. […] However, relatively low ethanol concentrations (10, 5, and 1%) increased the GPX-4 level at 12 h post-treatment compared to 4 h post-treatment, indicating a defensive response to the oxidative stress caused by ethanol. […]

[3] = system: N1S1 HCC tumors in rat liver; assay: In vivo immune status of right-side tumors by flow cytometry; conditions: 8 days post treatment
Source text: To test in vivo tumor neutrophil cell populations, rats were sacrificed, and tumors were harvested at 8 days post treatment and examined by flow cytometry after immunofluorescence staining with anti-CD45-BV605, anti-Granulocytes-PE, and anti-CD11b/c-PerCP/eF710. To determine the intra-tumoral infiltration of CD8+ (CD3+CD4-CD8+), lymphocytes were stained with anti-CD45-BV605, anti-CD3-FITC, anti-CD11b/c-PerCP/eF710, anti-CD4-APC/Cy7, anti-CD8-V450, and anti-IFN-gamma-AF647. To determine the intra-tumoral infiltration of CD4+ (Treg), lymphocytes were stained with anti-CD45-BV605, anti-CD3-FITC, anti-CD11b/c-PerCP/eF710, anti-CD4-APC/Cy7, anti-CD8-V450, anti-CD25-PE, and anti-Foxp3-APC. All antibodies were diluted with the ratio of 1:100 and signal color beads (OneComp eBeads™ Compensation Beads) and unstained bead were used for compensation.
(§3) The rats in the control group were only inoculated in the right lobe of the liver with 5 million non-treated N1S1 cells. The right-side tumors (arrow in FIG. 5A) were established for testing abscopal effect. These tumors were collected for an immune status assay. The tumor in the control group was used as the baseline.

[4] = system: GPX-4
Procedure: as §1
Western blot assay was then used to identify specific molecules associated with cancer cell response to the ethanol treatments. […] However, relatively low ethanol concentrations (10, 5, and 1%) increased the GPX-4 level at 12 h post-treatment compared to 4 h post-treatment, indicating a defensive response to the oxidative stress caused by ethanol. […] This is in agreement with the results of the cell viability and Annexin-V/PI assays (FIG. 1).

[5] = system: N1S1 cells
Procedure: as §4

[6] = system: N1S1 cells; assay: Cell viability assay (CCK-8); format: cell-based
Procedure: N1S1 cells (1×10^4/mL) were seeded onto 96-well plates. […] Then the cells were washed with PBS and replenished with fresh media. After 24 h or 48 hr incubation, the cells viability was measured with CCK-8 assay.

[7] = system: p-p65; assay: Western blot of p-p65 in N1S1 hepatoma cells; format: cell-based; conditions: ethanol 10, 5 and 1%
Procedure: as §1, §2

[8] = system: N1S1 HCC tumors in rat liver; assay: In vivo abscopal effect of ethanol-curcumin treated N1S1 cells, tumor volume by MRI; conditions: left lobe inoculated with treated N1S1 cells (10% ethanol or 10% ethanol plus Cur2 0.5% w/v) mixed with non-treated cells, MRI 8-day post-inoculation
Source text: as §3

[9] = system: PD-L1; assay: Western blot / flow cytometry of PD-L1 in N1S1 hepatoma cells; format: cell-based; conditions: ethanol 10, 5 and 1%
Procedure: as §1, §2

Compound	cellular uptake of curcumin (green fluorescence signal) ([1]; higher concentration of ethanol in ethanol-curcumin solution)	time curcumin maintained in N1S1 hepatoma cells ([1]; uptake amplified by the ethanol solution)	p-STAT3 activation [2]	IL-17 T cells in right-side tumor, difference among groups [3]	neutrophil population in right-side tumor compared to control [3]	population of Tregs in right-side tumor compared to control group [3]	GPX-4 level at 12 h compared to 4 h post-treatment ([4]; ethanol 10, 5 and 1%)	expression of GPX-4 at 24 h post-treatment ([4]; ethanol 10, 5 and 1%, 24 h)	GPX-4 level ([4]; ethanol 25, 20 and 15%, 4 h, 12 h and 24 h)	early apoptosis and late apoptosis populations (Annexin-V/PI) ([5]; 10-min coincubation, various ethanol concentrations, found even at 0 h)	live cell populations at 48 h ([5]; ethanol 15%, 10%, 5%, 1%, 48 h)	late apoptosis population at 48 h compared to 0 h and 24 h ([5]; ethanol 25% and 20%, 10-min coincubation)	live cell populations (Annexin-V negative and PI negative) ([5]; ethanol 25% and 20%, all time points (0, 24, 48 h))	cell-killing effect on N1S1 hepatoma cells (CCK-8 cell viability) ([6]; ethanol 15% to 1%, 5-min and 10-min coincubation)	growth inhibition of N1S1 hepatoma cells (CCK-8 cell viability) ([6]; ethanol 25% and 20%, 5-min and 10-min coincubation, 24 h and 48 h post-treatment)	liver cancer cell N1S1 growth ([6]; ethanol 25% to 5%, 10 min coincubation)	cell viability at 48 h post-treatment ([6]; lower ethanol concentrations, 5-min and 10-min coincubation, 48 h vs 24 h)	p-p65 activation [7]	average tumor volume of right-side HCC tumors [8]	PD-L1 expression [9]
COc1cc(/C=C/C(=O)CC(=O)/C=C/c2ccc(O)c(OC)c2)ccc1O [curcumin, (1E,6E)-1,7-bis(4-hydroxy-3-methoxyphenyl)hepta-1,6-diene-3,5-dione]	higher cellular uptake	at least 48 h																		
CCO [ethanol]			consistent activation	no significant difference	no significant difference	decreased population	increased	reduced to normal levels	consistently low	Dosage-dependent increase	higher live cell populations	decreased late apoptosis population	remained low	modest cell-killing effect	efficient growth inhibition	inhibits	recovery of cell viability	consistent activation	about 130 mm^3	upregulation
